Laboratory results reported in ChEMBL document CHEMBL3865802, “Natural product-inspired rational design, synthesis and biological evaluation of 2,3-dihydropyrano[2,3-f]chromen-4(8H)-one based hybrids as potential mitochondrial apoptosis inducers” (Eur J Med Chem, 2016).
Calls of active or inactive are those of the source. The rule behind the calls is not given here.

How the values were obtained:
[1] = Cytotoxicity against human MCF7 cells assessed as cell growth inhibition after 24 hrs by MTT assay; assay type: functional, cell-based; conditions: MCF7, 24 h
[2] = Cytotoxicity against human A549 cells assessed as cell growth inhibition after 24 hrs by MTT assay; assay type: functional, cell-based; conditions: A549, 24 h
[3] = Cytotoxicity against human HeLa cells assessed as cell growth inhibition after 24 hrs by MTT assay; assay type: functional, cell-based
[4] = system: MCF7; experiment: Induction of apoptosis in human MCF7 cells assessed as morphological changes at antiproliferative IC50 by AO/EB dual staining-based fluorescent microscopic analysis; assay type: functional, cell-based; conditions: TDE = time-dependent effect
[5] = system: MCF7; experiment: Induction of apoptosis in human MCF7 cells assessed as early apoptotic cells at antiproliferative IC50 after 24 hrs by AO/EB dual staining-based fluorescent microscopic analysis; assay type: functional, cell-based
[6] = system: MCF7; experiment: Induction of apoptosis in human MCF7 cells at antiproliferative IC50 assessed as late apoptotic cells after 48 hrs by AO/EB dual staining-based fluorescent microscopic analysis; assay type: functional, cell-based
[7] = system: MCF7; experiment: Induction of apoptosis in human MCF7 cells assessed as chromatin condensation at antiproliferative IC50 after 24 hrs by hoechst 33258 staining-based fluorescent microscopic analysis; assay type: functional, cell-based
[8] = system: MCF7; experiment: Induction of apoptosis in human MCF7 cells assessed as fragmented nuclei at antiproliferative IC50 after 24 hrs by hoechst 33258 staining-based fluorescent microscopic analysis; assay type: functional, cell-based
[9] = system: MCF7; experiment: Induction of apoptosis in human MCF7 cells assessed as presence of apoptotic bodies at antiproliferative IC50 after 24 hrs by hoechst 33258 staining-based fluorescent microscopic analysis; assay type: functional, cell-based
[10] = system: MCF7; experiment: Induction of apoptosis in human MCF7 cells assessed as cytoskeleton breakdown at antiproliferative IC50 after 48 hrs by hoechst 33258 staining-based fluorescent microscopic analysis; assay type: functional, cell-based
[11] = system: MCF7; experiment: Induction of apoptosis in human MCF7 cells assessed as plasma membrane blebbing at antiproliferative IC50 after 48 hrs by hoechst 33258 staining-based fluorescent microscopic analysis; assay type: functional, cell-based
[12] = system: MCF7; experiment: Induction of apoptosis in human MCF7 cells assessed as increase in number of abnormal cells at antiproliferative IC50 by hoechst 33258 staining-based fluorescent microscopic analysis; assay type: functional, cell-based; conditions: TDE = time-dependent effect
[13] = system: MCF7; experiment: Induction of mitochondrial membrane potential depolarization in human MCF7 cells assessed as increase in green fluorescence at 26.2 uM after 24 to 48 hrs by JC-1 staining-based fluorescent microscopic analysis; assay type: functional, cell-based
[14] = system: MCF7; experiment: Induction of apoptosis in human MCF7 cells assessed as DNA fragmentation at antiproliferative IC50 after 24 hrs by ethidium bromide staining based agarose gel electrophoresis method; assay type: functional, cell-based
[15] = system: MCF7; experiment: Induction of mitochondrial membrane potential loss in human MCF7 cells assessed as accumulation of cells at lower right quadrant at 26.2 uM after 48 hrs by JC-1 staining-based fluorescent microscopic analysis (reference value: 0.1 %); assay type: functional
[16] = system: MCF7; experiment: Induction of mitochondrial membrane potential loss in human MCF7 cells assessed as accumulation of cells at upper right quadrant at 26.2 uM after 48 hrs by JC-1 staining-based fluorescent microscopic analysis (reference value: 0.2 %); assay type: functional
[17] = Downregulation of Bcl2 mRNA expression in human MCF7 cells assessed as Bcl2 mRNA expression level at antiproliferative IC50 after 12 hrs by RT-qPCR analysis relative to control; assay type: functional, cell-based
[18] = Downregulation of Bcl2 mRNA expression in human MCF7 cells assessed as Bcl2 mRNA expression level at antiproliferative IC50 after 24 hrs by RT-qPCR analysis relative to control; assay type: functional, cell-based
[19] = Downregulation of Bcl2 mRNA expression in human MCF7 cells assessed as Bcl2 mRNA expression level at antiproliferative IC50 after 48 hrs by RT-qPCR analysis relative to control; assay type: functional, cell-based
[20] = Downregulation of Bcl2 protein expression in human MCF7 cells at antiproliferative IC50 after 24 hrs by Western blot analysis; assay type: functional, cell-based
[21] = Upregulation of Bax protein expression in human MCF7 cells at antiproliferative IC50 after 24 hrs by Western blot analysis; assay type: functional, cell-based
[22] = Hemolytic activity against human RBC at 26.2 uM after 4 hrs; assay type: ADME, cell-based; conditions: erythrocyte
[23] = system: MCF7; experiment: Induction of mitochondrial membrane potential depolarization in human MCF7 cells assessed as increase in green fluorescence at 14.3 uM after 24 to 48 hrs by JC-1 staining-based fluorescent microscopic analysis; assay type: functional, cell-based
[24] = system: MCF7; experiment: Induction of mitochondrial membrane potential loss in human MCF7 cells assessed as accumulation of cells at lower right quadrant at 14.3 uM after 48 hrs by JC-1 staining-based fluorescent microscopic analysis (reference value: 0.1 %); assay type: functional
[25] = system: MCF7; experiment: Induction of mitochondrial membrane potential loss in human MCF7 cells assessed as accumulation of cells at upper right quadrant at 14.3 uM after 48 hrs by JC-1 staining-based fluorescent microscopic analysis (reference value: 0.2 %); assay type: functional
[26] = Hemolytic activity against human RBC at 14.36 uM after 4 hrs; assay type: ADME, cell-based; conditions: erythrocyte
[27] = Hemolytic activity against human RBC at 28.7 uM after 4 hrs; assay type: ADME, cell-based; conditions: erythrocyte
[28] = Hemolytic activity against human RBC at 31.2 uM after 4 hrs; assay type: ADME, cell-based; conditions: erythrocyte

| SMILES | IC50 [1] | IC50 [2] | IC50 [3] | Activity [4] | Activity [5] | Activity [6] | Activity [7] | Activity [8] | Activity [9] | Activity [10] | Activity [11] | Activity [12] | Activity [14] | Activity [20] | Activity [21] | further results |
| --- | --- | --- | --- | --- | --- | --- | --- | --- | --- | --- | --- | --- | --- | --- | --- | --- |
| COc1cc(-c2nnc(NC(=O)c3cc4c(c5c3OC(C)(C)C=C5)OC(C)C(C)C4=O)s2)cc(OC)c1OC (stereo unspecified) | 70 µM | 79.3 µM | 97.8 µM | – | – | – | – | – | – | – | – | – | – | – | – | – |
| CC1Oc2c(cc(C(=O)Nc3nnc(-c4cccs4)s3)c3c2C=CC(C)(C)O3)C(=O)C1C (stereo unspecified) | 78.2 µM | 74.5 µM | 92.8 µM | – | – | – | – | – | – | – | – | – | – | – | – | – |
| CC1Oc2c(cc(C(=O)O)c3c2C=CC(C)(C)O3)C(=O)C1C (stereo unspecified) | 88.7 µM | 116 µM | 102 µM | – | – | – | – | – | – | – | – | – | – | – | – | – |
| CC1Oc2c(cc(C(=O)Nc3nccs3)c3c2C=CC(C)(C)O3)C(=O)C1C (stereo unspecified) | 75 µM | 64.4 µM | 84 µM | – | – | – | – | – | – | – | – | – | – | – | – | – |
| CC1Oc2c(cc(C(=O)Nc3nnc(-c4ccncc4)s3)c3c2C=CC(C)(C)O3)C(=O)C1C (stereo unspecified) | 57.9 µM | 75 µM | 74.3 µM | – | – | – | – | – | – | – | – | – | – | – | – | – |
| COc1cc2c(cc1OC)[C@@H]1C(=O)c3ccc4c(c3O[C@@H]1CO2)C=CC(C)(C)O4 [DEGUELIN] | 10.6 µM | – | – | – | – | – | – | – | – | – | – | – | – | – | – | – |
| CC1Oc2c(cc(C(=O)Nc3ccncc3)c3c2C=CC(C)(C)O3)C(=O)C1C (stereo unspecified) | 26.2 µM | 39.3 µM | 28.6 µM | Tde | Active | Active | Active | Active | Active | Active | Active | Tde | Active | Active | Active | Activity [13]: Active; Activity [15]: 20.2%; Activity [16]: 79.8%; Activity [17]: 92.2%; Activity [18]: 64%; Activity [19]: 57%; Activity [22]: Non-Toxic |
| Cc1ccc(-c2nnc(NC(=O)c3cc4c(c5c3OC(C)(C)C=C5)OC(C)C(C)C4=O)s2)cc1 (stereo unspecified) | 14.3 µM | 20.2 µM | 25.2 µM | Tde | Active | Active | Active | Active | Active | Active | Active | Tde | Active | Active | Active | Activity [23]: Active; Activity [24]: 13.7%; Activity [25]: 86.3%; Activity [17]: 82.7%; Activity [18]: 46%; Activity [19]: 39.7%; Activity [26]: Non-Toxic |
| c1ccc([C@H]2CN3CCSC3=N2)cc1 [LEVAMISOLE] | > 100 µM | > 100 µM | 96 µM | – | – | – | – | – | – | – | – | – | – | – | – | – |
| CC1Oc2c(cc(C(=O)Nc3nnc(-c4ccccc4)s3)c3c2C=CC(C)(C)O3)C(=O)C1C (stereo unspecified) | 37.8 µM | 32.4 µM | 40.2 µM | – | – | – | – | – | – | – | – | – | – | – | – | – |
| CC1Oc2c(cc(C(=O)Nc3cccc4ccccc34)c3c2C=CC(C)(C)O3)C(=O)C1C (stereo unspecified) | 48.1 µM | 58.1 µM | 41.7 µM | – | – | – | – | – | – | – | – | – | – | – | – | – |
| CC1Oc2c(cc(C(=O)Nc3cccnc3)c3c2C=CC(C)(C)O3)C(=O)C1C (stereo unspecified) | 28.7 µM | 26.9 µM | 41.2 µM | Tde | Active | Active | Active | Active | Active | Active | Active | Tde | Active | Active | Active | Activity [27]: Non-Toxic |
| CC1Oc2c(cc(C(=O)Nc3nnc(-c4ccc([N+](=O)[O-])cc4)s3)c3c2C=CC(C)(C)O3)C(=O)C1C (stereo unspecified) | 31.2 µM | 42.3 µM | 42.9 µM | Tde | Active | Active | Active | Active | Active | Active | Active | Tde | Active | Active | Active | Activity [28]: Non-Toxic |
